In patent US6667413B2, “Uracil compounds and use thereof” (Sumitomo Chemical Company, Limited, priority 1999, dated 2003):

Experiments:
Type in all cases: in vivo
[1] = test system: common chickweed (Stellaria media); test: Test Example 5: foliar treatment, herbicidal activity index; parameters: key: 0: no or little difference in the degree of germination or growth between the treated and the untreated tested plants at the time of examination; 10: the test plants died complete or their germination or growth was completely inhibited; details: foliar spray, 10 g/ha, 9 days after application, index 0 to 10
Method: A cylindrical plastic pot having a diameter of 18.5 cm and a depth of 15 cm was filled with soil and then seeded with common chickweed (Stellaria media). These test plants were grown in a greenhouse for 29 days. After then, each of the compound 1-2 and Compound A was formulated into an emulsifiable concentrate according to Formulation Example 2 and then diluted to the prescribed amount with water containing a spreading agent and the dilution was uniformly sprayed over the foliage of the test plants with a sprayer at a rate of 1000 liters per hectare. After the application, the test plants were grown in the greenhouse for 9 days, and the herbicidal activity was examined.

[2] = test system: velvetleaf (Abutilon theophrasti); test: Test Example 3: foliar treatment, herbicidal activity; details: foliar spray, 500 g/ha, 7 days after application
Method: (§1) A cylindrical plastic pot having a diameter of 10 cm and a depth of 10 cm was filled with soil and then seeded with Ivyleaf morningglory (Ipomoea hederacea), velvetleaf (Abutilon theophrasti) and barnyardgrass (Echinochloa crus-galli). These test plants were grown in a greenhouse for 9 days. After then, each of the compounds 3-16, 3-20 and 3-198 was formulated into an emulsifiable concentrate according to Formulation Example 2 and then diluted to the prescribed amount with water containing a spreading agent and the dilution was uniformly sprayed over the foliage of the test plants with a sprayer at a rate of 1000 liters per hectare. After the application, the test plants were grown in the greenhouse for 7 days, and the herbicidal activity was examined.

[3] = test system: Ivyleaf morningglory (Ipomoea hederacea); test: as above; details: foliar spray, 500 g/ha, 7 days after application
Method: as §1

[4] = test system: barnyardgrass (Echinochloa crus-galli); test: as above; details: foliar spray, 500 g/ha, 7 days after application
Method: as §1

[5] = test system: velvetleaf (Abutilon theophrasti); test: Test Example 4: soil surface treatment, herbicidal activity; details: sprayed over the surface of the soil, 2000 g/ha, 7 days after application
Source text: (§2) A cylindrical plastic pot having a diameter of 10 cm and a depth of 10 cm was filled with soil and then seeded with Ivyleaf morningglory (Ipomoea hederacea), velvetleaf (Abutilon theophrasti), barnyardgrass (Echinochloa crus-galli) and blackgrass (Alopecurus myosuroides). Then, each of the compounds 3-2,3-11, 3-12, 3-16, 3-20 and 3-198 was formulated into an emulsifiable concentrate according to Formulation Example 2 and then diluted to the prescribed amount with water, and the dilution was uniformly sprayed over the surface of the soil with a sprayer at a rate of 1000 liters per hectare. After the application, the test plants were grown in the greenhouse for 7 days, and the herbicidal activity of the applied composition was examined.

[6] = test system: blackgrass (Alopecurus myosuroides); test: as above; details: sprayed over the surface of the soil, 2000 g/ha, 7 days after application
Source text: as §2

[7] = test system: Ivyleaf morningglory (Ipomoea hederacea); test: as above; details: sprayed over the surface of the soil, 2000 g/ha, 7 days after application
Source text: as §2

[8] = test system: barnyardgrass (Echinochloa crus-galli); test: as above; details: sprayed over the surface of the soil, 2000 g/ha, 7 days after application
Source text: as §2

[9] = test system: velvetleaf (Abutilon theophrasti); test: Test Example 1: foliar treatment, herbicidal activity; details: foliar spray, 125 g/ha, 7 days after application
Method: (§3) A cylindrical plastic pot having a diameter of 10 cm and a depth of 10 cm was filled with soil and then seeded with Ivyleaf morningglory (Ipomoea hederacea), velvetleaf (Abutilon theophrasti), barnyardgrass (Echinochloa crus-galli) and blackgrass (Alopecurus myosuroides). These test plants were grown in a greenhouse for 9 days. Then, each of compounds 1-1,2-1, 3-1,3-2, 3-11 and 3-12 was formulated into an emulsifiable concentrate according to Formulation Example 2 and then diluted to the prescribed amount with water containing a spreading agent and the dilution was uniformly sprayed over the foliage of the test plants with a sprayer at a rate of 1000 liters per hectare After the application, the test plants were grown in the greenhouse for 7 days, and the herbicidal activity of the applied composition was determined.

[10] = test system: blackgrass (Alopecurus myosuroides); test: as above; details: foliar spray, 125 g/ha, 7 days after application
Method: as §3

[11] = test system: Ivyleaf morningglory (Ipomoea hederacea); test: as above; details: foliar spray, 125 g/ha, 7 days after application
Method: as §3

[12] = test system: barnyardgrass (Echinochloa crus-galli); test: as above; details: foliar spray, 125 g/ha, 7 days after application
Method: as §3

[13] = test system: velvetleaf (Abutilon theophrasti); test: Test Example 2: soil surface treatment, herbicidal activity; details: sprayed over the surface of the soil, 500 g/ha, 7 days after application
Source text: as §2, with “theophrasti) and” for “theophrasti),”, “crus-galli).” for “crus-galli) and blackgrass (Alopecurus myosuroides).”, “1-1,2-1” for “3-2,3-11, 3-12, 3-16, 3-20”, “3-1” for “3-198”

[14] = test system: Ivyleaf morningglory (Ipomoea hederacea); test: as above; details: sprayed over the surface of the soil, 500 g/ha, 7 days after application
Source text: as §2, with “theophrasti) and” for “theophrasti),”, “crus-galli).” for “crus-galli) and blackgrass (Alopecurus myosuroides).”, “1-1,2-1” for “3-2,3-11, 3-12, 3-16, 3-20”, “3-1” for “3-198”

[15] = test system: barnyardgrass (Echinochloa crus-galli); test: as above; details: sprayed over the surface of the soil, 500 g/ha, 7 days after application
Source text: as §2, with “theophrasti) and” for “theophrasti),”, “crus-galli).” for “crus-galli) and blackgrass (Alopecurus myosuroides).”, “1-1,2-1” for “3-2,3-11, 3-12, 3-16, 3-20”, “3-1” for “3-198”

SMILES | Herbicidal activity [1] | growth of velvetleaf [2] | growth of Ivyleaf morningglory [3] | growth of barnyardgrass [4] | emergence of velvetleaf [5] | emergence of blackgrass [6] | emergence of Ivyleaf morningglory [7] | emergence of barnyardgrass [8] | further results
CCOC(=O)C(C)Oc1ccc(Oc2cc(-n3c(=O)cc(C(F)(F)F)n(C)c3=O)c(F)cc2Cl)cc1 (stereo not drawn) [Compound 1-2, ethyl 2-[4-{2-chloro-4-fluoro-5-[3-methyl-2,6-dioxo-4-(trifluoromethyl)-1,2,3,6-tetrahydropyrimidin-1-yl]phenoxy}phenoxy]propionate] | 10 |  |  |  |  |  |  |  | 
C=CCOC(=O)COc1ccccc1Oc1cc(-n2c(=O)cc(C(F)(F)F)n(C)c2=O)c(F)cc1Cl [Compound 3-20, allyl [2-{2-chloro-4-fluoro-5-[3-methyl-2,6-dioxo-4-(trifluoromethyl)-1,2,3,6-tetrahydropyrimidin-1-yl]phenoxy}phenoxy]acetate] |  | completely controlled | completely controlled | completely controlled | completely controlled | completely controlled | completely controlled | completely controlled | 
Cn1c(C(F)(F)F)cc(=O)n(-c2cc(Oc3ccccc3OCC(=O)OC(C)(C)C)c(Cl)cc2F)c1=O [Compound 3-16] |  | completely controlled | completely controlled | completely controlled | completely controlled | completely controlled | completely controlled | completely controlled | 
COC(=O)C(C)Oc1ccccc1Oc1cc(-n2c(=O)cc(C(F)(F)F)n(C)c2=O)c(F)cc1Cl (stereo not drawn) [Compound 3-1, methyl 2-[2-{2-chloro-4-fluoro-5-[3-methyl-2,6-dioxo-4-(trifluoromethyl)-1,2,3,6-tetrahydropyrimidin-1-yl]phenoxy}phenoxy]propionate] |  |  |  |  |  |  |  |  | growth of velvetleaf [9]: completely controlled; growth of blackgrass [10]: completely controlled; growth of Ivyleaf morningglory [11]: completely controlled; growth of barnyardgrass [12]: completely controlled; emergence of velvetleaf [13]: completely controlled; emergence of Ivyleaf morningglory [14]: completely controlled; emergence of barnyardgrass [15]: completely controlled
CC(C)COC(=O)COc1ccccc1Oc1cc(-n2c(=O)cc(C(F)(F)F)n(C)c2=O)c(F)cc1Cl [Compound 3-198, isobutyl [2-{2-chloro-4-fluoro-5-[3-methyl-2,6-dioxo-4-(trifluoromethyl)-1,2,3,6-tetrahydropyrimidin-1-yl]phenoxy}phenoxy]acetate] |  | completely controlled | completely controlled | completely controlled | completely controlled | completely controlled | completely controlled | completely controlled | 
CCOC(=O)C(C)Oc1ccc(Oc2cc(-n3c(=O)cc(C(F)(F)F)n(N)c3=O)c(F)cc2Cl)cc1 (stereo not drawn) [Compound A, reference compound] | 5 |  |  |  |  |  |  |  | 
